Measured values as given in publication doi:10.1101/630459v1 (bioRxiv, 2019).
Marks after values point to notes of the source that are not given here.

Legend:
Format in all cases: in vivo, BALB/cAnNRj mice
Serum parameter analysis = assay: Serum parameter analysis
Blood parameter analysis = assay: Blood parameter analysis
active caspase-3 = assay: Indirect immunohistochemistry of active caspase-3 in organ cryosections
[1] = busulfan 18.8 mg/kg i.p., d3, mean, n = 6
[2] = busulfan 18.8 mg/kg i.p., d5, mean, n = 10
[3] = busulfan 18.8 mg/kg i.p., d5, mean, n = 11
[4] = busulfan 18.8 mg/kg i.p. day 0, 2, 4, day 5, n = 5, mean ± SD
[5] = cisplatin 20 mg/kg BW i.p. once, d1, mean, n = 3
[6] = cisplatin 20 mg/kg BW i.p. once, d2, mean, n = 8
[7] = cisplatin 20 mg/kg BW i.p. once, d2, mean, n = 9
[8] = cisplatin 20 mg/kg BW i.p. once, d3, mean, n = 4
[9] = cisplatin 20 mg/kg BW i.p. once, d2, mean, n = 12
[10] = cisplatin 20 mg/kg BW i.p. once, d3, mean, n = 5
[11] = cisplatin 20 mg/kg BW i.p. once, day 3, n = 3, mean ± SD
[12] = doxorubicin 4 mg/kg BW i.p., d8, mean, n = 3
[13] = doxorubicin 4 mg/kg BW i.p., d15, mean, n = 4
[14] = doxorubicin 4 mg/kg BW i.p. day 0, 7, 14, day 15, n = 3, mean ± SD
[15] = doxorubicin 4 mg/kg BW i.p. day 0, 7, 14, day 15, n = 4, mean ± SD

Structure (SMILES): CS(=O)(=O)OCCCCOS(C)(=O)=O [Busulfan]
- ALT (Serum parameter analysis; [1]): 55.33 U/L
- AST (Serum parameter analysis; [1]): 82.5 U/L
- CK (Serum parameter analysis; [1]): 141.5 U/L
- Creatinine (Serum parameter analysis; [1]): 11.17 µmol/L
- Urea (Serum parameter analysis; [1]): 7.81 mmol/L
- ALT (Serum parameter analysis; [2]): 87.1 U/L
- AST (Serum parameter analysis; [2]): 84.4 U/L
- CK (Serum parameter analysis; [2]): 160.2 U/L
- Creatinine (Serum parameter analysis; [2]): 12.6 µmol/L
- Urea (Serum parameter analysis; [2]): 7.19 mmol/L
- HCT (Blood parameter analysis; [1]): 42.0%
- HGB (Blood parameter analysis; [1]): 15.2 g/dL
- PLT (Blood parameter analysis; [1]): 849.3 10^3/µl
- RBC (Blood parameter analysis; [1]): 9.79 10^6/µl
- WBC (Blood parameter analysis; [1]): 4730 µL⁻¹
- HCT (Blood parameter analysis; [3]): 35.2%
- HGB (Blood parameter analysis; [3]): 13.3 g/dL
- PLT (Blood parameter analysis; [3]): 1.175e+06 µL⁻¹
- RBC (Blood parameter analysis; [3]): 8.32 10^6/µl
- WBC (Blood parameter analysis; [3]): 4940 µL⁻¹
- caspase-3 activation, liver (active caspase-3; [4]): 3.0 ± 0.1 % area
- caspase-3 activation, lungs (active caspase-3; [4]): 0.4 ± 0.1 % area

Structure (SMILES): N.N.[Cl][Pt][Cl] [Cisplatin]
- ALT (Serum parameter analysis; [5]): 58 U/L
- AST (Serum parameter analysis; [5]): 122 U/L
- CK (Serum parameter analysis; [5]): 180.7 U/L
- Creatinine (Serum parameter analysis; [5]): 16.67 µmol/L
- Urea (Serum parameter analysis; [5]): 6.32 mmol/L
- ALT (Serum parameter analysis; [6]): 88.88 U/L
- AST (Serum parameter analysis; [6]): 200* U/L
- CK (Serum parameter analysis; [7]): 372.6 U/L
- Creatinine (Serum parameter analysis; [7]): 27.67** µmol/L
- Urea (Serum parameter analysis; [7]): 15.09* mmol/L
- ALT (Serum parameter analysis; [8]): 63.5 U/L
- AST (Serum parameter analysis; [8]): 183.8 U/L
- CK (Serum parameter analysis; [8]): 586.3* U/L
- Creatinine (Serum parameter analysis; [8]): 22.25 µmol/L
- Urea (Serum parameter analysis; [8]): 11.08 mmol/L
- HCT (Blood parameter analysis; [5]): 43.5** %
- HGB (Blood parameter analysis; [5]): 15.9* g/dL
- PLT (Blood parameter analysis; [5]): 797 10^3/µl
- RBC (Blood parameter analysis; [5]): 10.23 10^6/µl
- WBC (Blood parameter analysis; [5]): 5.63 10^3/µl
- HCT (Blood parameter analysis; [9]): 40.5%
- HGB (Blood parameter analysis; [9]): 15.08 g/dL
- RBC (Blood parameter analysis; [9]): 9.45 10^6/µl
- WBC (Blood parameter analysis; [9]): 4.85** 10^3/µl
- HCT (Blood parameter analysis; [10]): 41.6%
- HGB (Blood parameter analysis; [10]): 15.38 g/dL
- PLT (Blood parameter analysis; [10]): 1147** 10^3/µl
- RBC (Blood parameter analysis; [10]): 9.81e+06 µL⁻¹
- WBC (Blood parameter analysis; [10]): 3.68** 10^3/µl
- caspase-3 activation, kidneys (active caspase-3; cisplatin 20 mg/kg BW i.p. once, day 2, n = 3, mean ± SD): 1.0 ± 0.1 % area
- caspase-3 activation, liver (active caspase-3; [11]): 4.3 ± 0.7 % area
- caspase-3 activation, lungs (active caspase-3; [11]): 0.5 ± 0.1 % area
- caspase-3 activation, spleen (active caspase-3; cisplatin 20 mg/kg BW i.p. once, day 3, n = 4, mean ± SD): 10.5 ± 4.8 % area

Structure (SMILES): COc1cccc2c1C(=O)c1c(O)c3c(c(O)c1C2=O)C[C@@](O)(C(=O)CO)C[C@@H]3O[C@H]1C[C@H](N)[C@H](O)[C@H](C)O1 [Doxorubicin]
- ALT (Serum parameter analysis; [12]): 90.33** U/L
- AST (Serum parameter analysis; [12]): 94.67 U/L
- CK (Serum parameter analysis; [12]): 109.7 U/L
- Creatinine (Serum parameter analysis; [12]): 15.33* µmol/L
- Urea (Serum parameter analysis; [12]): 7.73 mmol/L
- ALT (Serum parameter analysis; [13]): 52.25 U/L
- AST (Serum parameter analysis; [13]): 96.5 U/L
- CK (Serum parameter analysis; [13]): 195.3* U/L
- Creatinine (Serum parameter analysis; [13]): 16.25** µmol/L
- Urea (Serum parameter analysis; [13]): 7 mmol/L
- HCT (Blood parameter analysis; [12]): 41.2%
- PLT (Blood parameter analysis; [12]): 1011 10^3/µl
- RBC (Blood parameter analysis; [12]): 9.62 10^6/µl
- WBC (Blood parameter analysis; [12]): 9.2 10^3/µl
- HCT (Blood parameter analysis; [13]): 34.1*** %
- PLT (Blood parameter analysis; [13]): 1.106e+06 µL⁻¹
- RBC (Blood parameter analysis; [13]): 7.98*** 10^6/µl
- WBC (Blood parameter analysis; [13]): 6.5 10^3/µl
- caspase-3 activation, liver (active caspase-3; [14]): 3.5 ± 1.5 % area
- caspase-3 activation, lungs (active caspase-3; [14]): 0.7 ± 0.1 % area
- caspase-3 activation, heart (active caspase-3; [15]): 2.2 ± 0.7 % area
- caspase-3 activation, kidneys (active caspase-3; [15]): 1.1 ± 0.3 % area
- caspase-3 activation, lungs (active caspase-3; doxorubicin 4 mg/kg BW i.p., day 8, n = 3, mean ± SD): 0.6 ± 0.2 % area
